Among the data in patent US6900216B2, “Dihydroimidazo[2,1-b]thiazole and dihydro-5h-thiazolo[3,2-A]pyrimidines as antidepressant agents” (Knoll GmbH, priority 2000, dated 2005) are melting point, Ki and inhibition values, retold here.

For series [1], the target named is T1, noradrenaline (NA) reuptake sites (Rattus norvegicus, UniProt Q63380).
T1 construct: Frontal cortical tissue from the brains of male Charles River rats; from tissue; host or cells: rat frontal cortical membranes
Nature of the series: NA uptake: displacement of [3H]nisoxetine from noradrenaline reuptake sites, rat frontal cortical membranes. In kind it is binding. The settings on record: for Ki: [3H]nisoxetine 0.6 nM, rat frontal cortical membranes, fit to data from three experiments; for inhibition at 1 µM: read-out: NA uptake % displacement at 10^−6 M. The method, then:
(§1) Frontal cortical tissue from the brains of male Charles River rats weighing 150-250 g was homogenised in ice-cold 50 mM Tris-HCl, pH 7.4 (at 25° C.) containing 120 mM sodium chloride and 5 mM potassium chloride (Tris buffer; 1:60 w/v) using a Kinematic polytron (speed setting 6 for 10 seconds) and centrifuged at 40,000 g for 10 minutes. The supernatant was discarded and the pellet rehomogenised in Tris buffer, 1:60 w/v, and centrifuged at 40,000 g for 10 minutes. This step was repeated twice more so that, in total, the brain tissue was homogenised and centrifuged four times. The final pellet was resuspended in 50 mM Tris-HCl, pH 7.4 containing 300 mM sodium chloride and 5 mM potassium chloride (equivalent to 18.75 mg wet weight of tissue/ml) and used immediately in the binding assay. All centrifugations were performed at 4° C.
Membranes (400 μl; equivalent to 7.5 mg wet weight of tissue/tube) were incubated with 50 μl [^3H]nisoxetine at a single concentration of 0.6 nM and 50 μl of distilled water (total binding) or 50 μl^− of test compound (at a single concentration 10^−6M or at 10 concentrations ranging from 10^−11-10^−3 M) or 50 μl of mazindol (1 μM; non-specific binding) for 4 h at 4° C. Membrane bound radioactivity was recovered by filtration under vacuum through Skatron 11734 filters using a Skatron cell harvester. Filters were rapidly washed with ice-cold 50 mM Tris-HCl, pH 7.4 containing 120 mM sodium chloride and 5 mM potassium chloride (wash setting 9,9,0). The scored filter paper discs were punched out into vials, scintillation fluid added and radioactivity determined by liquid scintillation counting.
(§2) For each of these tests measuring the ability of compounds of Formula I to displace standard ligands from 5-HT1A receptors and 5-hydroxytryptamine (5-HT) and noradrenaline (NA) reuptake sites and muscarinic receptors in vitro, the percentage displacement of specific binding of tritiated ligand by 10^−6 M test compound was calculated in the following way.
(§3) Firstly, specific binding of tritiated ligand in the absence (A) and presence (B) of test compound was determined:
(§4) In the absence of compound: A(dpm)=Total binding (dpm)−Non-specific binding (dpm) In the presence of compound (10^−6 M): B(dpm)=Binding at 10^−6M (dpm)−Non-specific binding (dpm)
(§5) The specific binding of tritiated ligand in the presence (B) of compound was then converted to a percentage of specific binding of tritiated ligand in the absence (A) of compound: % Specific binding at 10^−6 M=B(dpm)/A(dpm)×100
(§6) The percentage displacement of specific binding of tritiated ligand by the test compound (10^−6 M) was then obtained by subtraction of the percentage specific binding in the presence of compound from the percentage specific binding in the absence of compound, which is taken as the maximum binding and so equals 100%:
(§7) % Displacement at 10^−6 M=100−% Specific binding at 10^−6 M.
In some cases, displacement curves were then produced for compounds which displaced ≧50% of specific binding of the tritiated ligand at 10^−6 M using a range of concentrations of the compound. The Ki was then calculated by simultaneous fitting using equations derived from the Feldman equations by robust non-linear regression to data from three experiments simultaneously (De Lean et al., 1978; Munson and Rodbard, 1980; Feldman, 1992). Munson P J and Rodbard D. Ligand: a versatile computerised approach for characterisation of ligand binding systems. Anal Biochem 1980; 107: 220. Feldman HA. Mathematical theory of complex ligand binding systems at equilibrium: some methods for parameter fitting. Anal Biochem 1992: 48, 317. De Lean A, Munson P J and Rodbard D. Simultaneous analysis of families of sigmoidal curves: application to bioassay, radioligand assay, and physiological dose-response curves. Am J Physiol 1978: 235 (2), E97-E102. […]
On the technique in general: In a radioligand displacement assay an active substance lowers the binding of a labelled ligand.

Series [2] has as its target T2, 5-HT reuptake sites (Rattus norvegicus, UniProt P31652).
T2 construct: Frontal cortical tissue from the brains of male Charles River rats; from tissue; host or cells: rat frontal cortical membranes
Nature of the series: 5-HT uptake: displacement of [3H]citalopram from 5-HT reuptake sites, rat frontal cortical membranes. In kind it is binding. The settings on record: for Ki: [3H]citalopram 1.3 nM, rat frontal cortical membranes, fit to data from three experiments; for inhibition at 1 µM: 10^−6 M test compound, single determination, [3H]citalopram. The method, then: as §1, with “7.4 (when measured at” for “7.4 (at”, “buffer; 1:30” for “buffer; 1:60”, “w/v)” for “w/v) using a Kinematic polytron (speed setting 6 for 10 seconds)”, “repeated a further time.” for “repeated twice more so that, in total, the brain tissue was homogenised and centrifuged four times.”, “containing 120” for “containing 300”, “to 3.125” for “to 18.75”
Membranes (400 μl; equivalent to 1.25 mg wet weight of tissue/tube) were incubated with 50 μl [^3H]citalopram at a single concentration of 1.3 nM and 50 μl of distilled water (total binding) or 50 μl of test compound (at a single concentration of 10^−6 M or at 10 concentrations ranging from 10^−11-10^−3 M) or 50 μl of paroxetine (0.5 μM; non-specific binding) for 1 h at 27° C. Membrane bound radioactivity was recovered by filtration under vacuum through Skatron 11734 filters presoaked in 0.5% PEI using a Skatron Cell Harvester. Filters were then washed in ice-cold 50 mM Tris-HCl buffer, pH 7.4 (at 25° C., wash setting 9,9,0). The scored filter paper discs were punched out into vials, scintillation fluid added and radioactivity determined by liquid scintillation counting.
as §2, §3, §4, §5, §6, §7
In some cases, displacement curves were then produced for compounds which displaced ≧50% of specific binding of the tritiated ligand at 10^−6 M using a range of concentrations of the compound. The Ki was then calculated by simultaneous fitting using equations derived from the Feldman equations by robust non-linear regression to data from three experiments simultaneously (De Lean et al., 1978; Munson and Rodbard, 1980; Feldman, 1992). Munson P J and Rodbard D. Ligand: a versatile computerised approach for characterisation of ligand binding systems. Anal Biochem 1980; 107: 220. Feldman HA. Mathematical theory of complex ligand binding systems at equilibrium: some methods for parameter fitting. Anal Biochem 1992: 48, 317. De Lean A, Munson P J and Rodbard D. Simultaneous analysis of families of sigmoidal curves: application to bioassay, radioligand assay, and physiological dose-response curves. Am J Physiol 1978: 235 (2), E97-E102.
The results obtained in the above tests for 5-HT1A binding and 5-HT and NA uptake and muscarinic binding for the final products of Examples 1-39 hereinafter are given in Table 1 below. Kis are in nM. % Figures are for % displacement at 10^−6 M for a single determination.

T2 sequence (P31652 whole entry): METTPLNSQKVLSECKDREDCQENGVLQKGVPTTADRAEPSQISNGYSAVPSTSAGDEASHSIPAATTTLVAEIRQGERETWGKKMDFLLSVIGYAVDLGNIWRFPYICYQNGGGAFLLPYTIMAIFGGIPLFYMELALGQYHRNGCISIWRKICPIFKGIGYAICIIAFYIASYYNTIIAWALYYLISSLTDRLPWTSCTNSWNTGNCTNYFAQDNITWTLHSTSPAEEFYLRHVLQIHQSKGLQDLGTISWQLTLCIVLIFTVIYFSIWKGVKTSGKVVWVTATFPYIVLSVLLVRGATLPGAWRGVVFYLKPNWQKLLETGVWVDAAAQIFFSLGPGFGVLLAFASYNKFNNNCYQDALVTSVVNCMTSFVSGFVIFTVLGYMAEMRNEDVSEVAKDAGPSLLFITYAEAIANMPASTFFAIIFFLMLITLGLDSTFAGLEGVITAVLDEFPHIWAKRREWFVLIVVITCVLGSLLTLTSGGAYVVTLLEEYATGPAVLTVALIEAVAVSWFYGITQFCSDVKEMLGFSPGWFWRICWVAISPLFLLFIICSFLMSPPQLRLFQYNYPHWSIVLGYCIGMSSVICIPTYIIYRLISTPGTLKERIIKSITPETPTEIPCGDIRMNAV
T1 sequence (Q63380 1-617): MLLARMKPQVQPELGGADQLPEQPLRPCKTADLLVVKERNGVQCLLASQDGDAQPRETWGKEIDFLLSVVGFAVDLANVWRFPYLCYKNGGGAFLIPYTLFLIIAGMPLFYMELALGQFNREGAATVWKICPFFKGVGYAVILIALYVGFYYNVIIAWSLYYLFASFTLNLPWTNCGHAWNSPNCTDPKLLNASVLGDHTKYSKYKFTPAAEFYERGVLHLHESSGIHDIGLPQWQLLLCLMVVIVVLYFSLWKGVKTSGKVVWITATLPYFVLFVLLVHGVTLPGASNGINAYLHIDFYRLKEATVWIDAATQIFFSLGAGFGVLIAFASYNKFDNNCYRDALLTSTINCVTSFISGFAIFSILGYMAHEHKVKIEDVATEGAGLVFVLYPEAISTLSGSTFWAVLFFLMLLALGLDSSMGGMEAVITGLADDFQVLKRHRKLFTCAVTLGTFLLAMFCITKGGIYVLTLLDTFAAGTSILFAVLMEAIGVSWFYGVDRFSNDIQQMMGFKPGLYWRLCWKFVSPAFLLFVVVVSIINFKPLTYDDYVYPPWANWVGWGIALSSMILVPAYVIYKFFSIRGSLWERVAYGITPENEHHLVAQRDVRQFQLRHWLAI

For orientation: melting point means the temperature, or range, at which the solid turns liquid. As usually defined, the Ki is the dissociation constant of the complex between target and ligand, obtained from inhibition or displacement. Lower therefore signals higher affinity. In turn, `OCC1=C(c2cc3c(Cl)cccc3s2)N2CCN=C2S1` [Example 4, [3-(4-chlorobenzo[b]thiophen-2-yl)-5,6-dihydroimidazo[2,1-b]thiazol-2-yl]methanol] registered a melting point of 170 to 172 °C. Further, the affinity in series [1], expressed as Ki, was 25 nM. This compound gave a Ki in series [2] of 36 nM.
As to `CCC1=C(c2cccc3sccc23)N2CCN=C2S1.O=C(O)/C=C/C(=O)O` [Example 25, 3-(benzo[b]thiophen-4-yl)-2-ethyl-5,6-dihydroimidazo[2,1-b]thiazole fumarate], the melting point lay in the range of 171 to 173 °C. The Ki in series [1] was 5.4 nM. The same compound came in with a Ki in series [2] of 169 nM.
On to `Br.CC1=C(c2cc3ccccc3s2)N2CCN=C2S1` [Example 6, 3-(benzo[b]thiophen-2-yl)-2-methyl-5,6-dihydroimidazo[2,1-b]thiazole hydrobromide], for which the melting point is 257 to 259 °C (dec.). Besides, in series [1], the Ki was 21 nM. The Ki in series [2] stood at 44.4 nM.
In turn, `Br.CC1=C(c2cc3c(Cl)c(Cl)ccc3s2)N2CCN=C2S1` [Example 24, 3-(4,5-dichlorobenzo[b]thiophen-2-yl)-2-methyl-5,6-dihydroimidazo[2,1-b]-thiazole hydrobromide] gave a melting point of 244 to 246 °C. Besides, the inhibition at 1 µM in series [1] was found to be 39%. In addition, the inhibition at 1 µM in series [2] is 97%.
Consider `Br.COc1cccc2cc(C3=C(C)SC4=NCCN43)sc12` [Example 26, 3-(7-methoxybenzo[b]thiophen-2-yl)-2-methyl-5,6-dihydroimidazo[2,1-b]thiazole hydrobromide], for which the melting point lay within 270 to 272 °C. Besides, the inhibition at 1 µM in series [1] was -3%. For the same compound, in series [2], the inhibition at 1 µM turned out to be 64%.
`CSC1=C(c2cccc3sccc23)N2CCN=C2S1.Cl` [Example 22, 3-(benzo[b]thiophen-4-yl)-2-(methylthio)-5,6-dihydroimidazo[2,1-b]thiazole hydrochloride] gave a melting point of 95 to 105 °C. The compound also came in with a Ki in series [1] of 1.5 nM. The compound also displayed a Ki in series [2] of 85 nM.
